# US6455466B1, “Compositions and methods for preventing leaf yellowing in plants” (The Regents of the University of California, priority 2000, dated 2002)
# What was measured:
# plants = conditions: cited from earlier work
# [1] = test system: cut flowers of Alstroemeria (cv. diamond); experiment: Leaf chlorophyll content / leaf yellowing of cut Alstroemeria flowers held in treatment solution; type: in vivo
# Protocol: The model system used in the experiments was cut stems of Alstroemeria an important cut flower whose flowers normally long outlast the relatively short-lived leaves.
# In a preliminary experiment with cut flowers of Alstroemeria (cv. diamond), the flowers were placed in deionized water (DI) or a solution containing 1 μM TDZ. The chlorophyll content of the leaves was measured as described by Lichenhaler, Methods in Enzymology […] (1987). […] By 20 days, there was no detectable chlorophyll in the leaves of the control flowers (see, FIG. 1).
compound,measurement,setting,value
"O=C(Nc1ccccc1)Nc1cnns1 [TDZ, 1-phenyl-3-(1,2,3-thiadiazol-5-yl)urea]",metabolism by plants,plants,plants do not metabolize it
same,chlorophyll content of the leaves versus flowers held in deionized water,"[1]; 1 μM TDZ solution, by 10 days",significantly higher than the concentration in leaves of flowers held in DI
same,effectiveness of 24 hour pulse pre-treatment,[1]; 24 hour pulse pre-treatment with 10 μM TDZ compared with continuous 1 μM TDZ,as effective as continuous treatment with 1 μM TDZ
same,chlorophyll content of the leaves,"[1]; cut Alstroemeria flowers placed in solution containing 1 μM TDZ, throughout the experiment (FIG. 1)",remained high throughout the experiment
same,effectiveness compared with BAP or GA3,"[1]; subsequent experiments, cut Alstroemeria flowers",much more effective than BAP or GA3
